Experimental data: a melting point compilation (Tetko et al.)

Point of comparison: `COc1ccc2oc(CCC(C)=O)c(-c3ccc(C)o3)c2c1`, melting point 36 °C. Against it:
- CS(=O)(=O)Nc1ccc(C#N)cc1 — higher, 194 °C
- O=C(O)C1CCCCN1 (configuration not stated) — higher, 277 °C
- NC(COc1ccc(C2SCCS2)cc1)=NO — higher, 113 to 115 °C
- CN(C)c1ccc(N=Nc2ccccc2)cc1 — higher, 117 °C
- Nc1ccc(I)cc1C(=O)O — higher, 219 to 221 °C
- O=C(O)C1CC=CCC1 (configuration not stated) — lower, 17 °C
- O=C(O)C12CC3CC(C1)CC(C(F)(F)C(F)C(F)(F)F)(C3)C2 (configuration not stated) — higher, 115 to 117 °C
- Nc1ccc(Nc2ccc([N+](=O)[O-])cc2[N+](=O)[O-])cc1 — higher, 188 °C
- CCC(C)Cl (configuration not stated) — lower, -140 °C
- O=C(CCl)Nc1ccc([N+](=O)[O-])cc1 — higher, 185 to 186 °C
- Cc1ccc(S(=O)(=O)n2cccc2)cc1 — higher, 101 °C
- O=C(NNC(=S)NCc1ccccc1)C(=O)c1c[nH]c2ccccc12 — higher, 243 °C
- CC12CCC(C(=CC(Cc3ccccc3)C(=O)O)C1=O)C2(C)C (configuration not stated) — higher, 127 °C
- CC(C)(C)CC(C)(C)c1ccc(O)cc1 — higher, 84.5 °C
- Cc1nc(CC(=O)O)c(C)s1 — higher, 110 to 113 °C
- CC(=O)CCc1ccc(CCC(C)=O)c([N+](=O)[O-])c1 — higher, 58 °C
- O=Cc1ccc(O)c(OC(F)(F)F)c1 — higher, 78 °C
- O=c1oc2ccccc2c(O)c1C(CC(O)c1ccc(-c2ccc(Br)cc2)cc1)c1ccccc1 (configuration not stated) — higher, 199 °C
- NC(=S)Nc1cccc(Cl)c1 — higher, 137 to 138 °C
- CC(=O)Oc1ccc(I)cc1 — lower, 32 °C
- Cc1ccc(Sc2ncccc2C(=O)Cl)cc1 — higher, 102 to 104 °C
- O=C(c1cccs1)c1noc(-c2ccc(Br)cc2)c1S(=O)(=O)c1ccccc1 — higher, 130 °C
- c1ccc(-c2c(-c3[nH]c4ccccc4c3-c3ccccc3)[nH]c3ccccc23)cc1 — higher, 227 °C
- CC12CCC(O)CC1CCC1C3CCC(O)(C#Cc4ccccc4)C3CCC12 (configuration not stated) — higher, 118 to 125 °C
- NNC(=O)CNS(=O)(=O)c1cccc2nsnc12 — higher, 151 to 153 °C
- Clc1ccc(-c2cn3c(n2)sc2ccccc23)cc1 — higher, 158 to 160 °C
- CCCCCCCOC(=O)CCCCCCC — lower, -10.6 °C
- CCCOC(=O)Cn1cc(I)c(=O)c(I)c1 — higher, 186 °C
- ClCc1cc2cc(Br)ccc2o1 — higher, 63 to 64 °C
- CC(=O)CC(C)(C)O — lower, -42.8 °C
- OCCN(CCO)CCc1ccc(CSc2ccccc2)cc1 — higher, 80 °C
- Nc1cc(C(=O)O)ccc1C(=O)O — higher, 324 °C
- O=C(Nc1ccccc1)Nc1ccccc1 — higher, 242 °C
- CCCCCCC(C)OC(=O)COc1nc(F)c(Cl)c(N)c1Cl (configuration not stated) — higher, 59 °C
- NNCCO — lower, -70 °C
- CC(C)OC(=O)N=NC(=O)OC(C)C — lower, 3 to 5 °C
- CCNc1cc(NC(C)=O)ccc1C — higher, 107 to 109 °C
- N#CC(C#N)=c1ccc(=C(C#N)C#N)cc1 — higher, 287 to 289 °C
- O=Cc1[nH]ncc1Br — higher, 80 to 82 °C
- NC(=O)CN1Cc2ccccc2OC1=O — higher, 203 °C
- Cc1ccc(C(=O)O)cc1Br — higher, 208 °C
- CCOC(=O)Nc1ccc2cc3ccc(N)c(CO)c3nc2c1 — higher, 135 °C
- COC(=O)Oc1ccccc1C(=O)O — higher, 134 °C
- CCN(CC)C(=O)C1CN2CCc3cc(OC)c(OC)cc3C2CC1OC(C)=O (configuration not stated) — higher, 131 °C
- CC1(C)CCC2(C)CC=C3C(C)(CCC4C3(C)CCC3C(C)(C)C(O)CCC43C)C2C1 (configuration not stated) — higher, 284 °C
- c1cn[nH]c1 — higher, 68 °C
- N#CC1=C(N)Oc2[nH]nc(C(F)(F)F)c2C1c1ccc(Cl)cc1Cl (configuration not stated) — higher, 199 °C
- CCCCCCc1ccc(C#Cc2ccc(CC)cc2)cc1 — lower, 10 °C
- O=C(O)CSC=Cc1ccccc1 — higher, 81 to 84 °C
- ON=Cc1sccc1Oc1ccccc1 — higher, 105 to 106 °C
- CCOC(=O)c1c(C=O)c(C)n(-c2ccccc2)c1C — higher, 78 to 81 °C
- Cc1ccccc1-n1ncc(C=O)c1C — higher, 99 to 100 °C
- CCOC(=O)CC(/C=C1\C(=O)C2(C)CCC1C2(C)C)(/C=C1\C(=O)C2(C)CCC1C2(C)C)C(=O)OCC (configuration not stated) — higher, 105 °C
- CC(=O)NC1C(Oc2ccc3c(C)cc(=O)oc3c2)OC(CO)C(O)C1O (configuration not stated) — higher, 208 to 210 °C
- CCOC(=O)c1cc(-c2ccc(Br)s2)on1 — higher, 51 to 53 °C
- CC(C)CCCC(C)C1CCC2C3CCC4=CC(O)CCC4(C)C3CCC12C (configuration not stated) — higher, 132 °C
- C#CCCCCCC#C — lower, -21 °C
- C/C(=N\O)C1CC2(C)CCC1C2(C)C (configuration not stated) — higher, 95.5 °C
- Brc1cccc2ncccc12 — higher, 46 °C
- CSc1nsc(S)n1 — higher, 143 to 147 °C
- CC(C)C(C)C(O)C(O)C(C)C1CCC2C3COC(=O)C4CC(O)C(O)CC4(C)C3CCC12C (configuration not stated) — higher, 255 °C
- OCC1OC=CC(O)C1O (configuration not stated) — higher, 99 to 103 °C
- ON(C=C(Br)c1ccccc1)c1ccccc1 — higher, 180 °C
- CC(=O)OC(C)OC(C)=O — lower, 18.9 °C
- Nc1cccc2c1C(=O)c1cccc(N)c1C2=O — higher, 319 °C
- COc1c(CC(O)C(C)C)c(=O)n(C)c2c(OC)cccc12 (configuration not stated) — higher, 86.5 °C
- ClCCCOc1ccccc1 — lower, 12 °C
- CC(C)(Oc1ccccc1)C(=O)O — higher, 98.5 °C
- CC(C)(C)C(=O)Nc1ccncc1C(=O)O — higher, 250 to 254 °C
- Cc1ccc(C(=O)C=CC(=O)O)cc1 — higher, 139 °C
- O=[N+]([O-])c1ccc(Sc2ccc(N=C=S)cc2)cc1 — higher, 124 to 126 °C
- O=C(O)CSc1cccc2cccc(Cl)c12 — higher, 156 °C
- CN(C)C(=S)SC(=S)N(C)C — higher, 106 to 110 °C
- CNC(=O)CC#N — higher, 82 to 84 °C
- N#CC1=C(N)n2nc(C(F)(F)F)nc2NC1c1c(Cl)cccc1Cl (configuration not stated) — higher, 323 °C
- Cn1nc(-c2ccc(Cl)cc2)cc1N — higher, 150 to 152 °C
- N#C[C@@H]1CCCC[C@H]1O (relative stereo) — higher, 46 to 49 °C
- Nc1cc(N)c(/C=C/c2ccccc2)cc1/C=C/c1ccccc1 — higher, 201 °C
- Cn1c(-c2ccc(Cl)cc2)cnc1S — higher, 244 to 247 °C
- CC(=O)OC1(C(C)=O)CCC2(C)C(CCC3C4CCCC4(C)CCC32)C1 (configuration not stated) — higher, 164 to 166 °C
- Cc1nc(-c2ccncc2)sc1C(=O)O — higher, 305 °C
- O=S1OCC2C(CO1)C1(Cl)C(Cl)=C(Cl)C2(Cl)C1(Cl)Cl (configuration not stated) — higher, 109 °C
- COC(=O)C1(C(=O)OC)Cc2c(C)c(C)c(C)c(C)c2C(=O)O1 — higher, 166 °C
- COc1ccc(Cl)cc1N=C=S — higher, 58 °C
- C=C1CC(=CC)C(=O)OC2CCN3CC=C(COC(=O)C1(C)O)C23 (configuration not stated) — higher, 218 °C
- O=C(CF)c1ccccc1 — lower, 29 °C
- O=[N+]([O-])c1ccccc1/C=C/c1ccccc1 — higher, 73 °C
- Cc1n[nH]c(C)c1C(=O)O — higher, 273 to 275 °C
- Nc1ccc(Cn2cncn2)cc1 — higher, 124 to 126 °C
- CCOC(=O)C(SP(=S)(OC)OC)c1ccccc1 (configuration not stated) — lower, 17.5 °C
- COc1ccc(NC(=O)C(C)=NNC(N)=S)cc1 — higher, 234 °C
